Measurements as given in patent publication US20160244437A1, “SUBSTITUTED PHENYLALANINE DERIVATIVES” (BAYER PHARMA AKTIENGESELLSCHAFT, priority 2013, published 2016).
Where a name gives a salt, the structure may show the parent alone.

How the values were obtained:
human and animal plasma = experiment: Determination of anticoagulatory activity: activated partial thromboplastin time (aPTT) in plasma; settings: concentration of test substance which brings about a 1.5-fold extension of the aPTT; plasma in vitro, C.K. Prest kit
How it was run: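 Citrated plasma (human, mouse, rat, rabbit, pig, dog) incubated with varying compound concentrations and cephalin/kaolin PTT reagent for 3 minutes at 37° C.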

human factor XIa = molecular target: T1, human factor XIa (Homo sapiens, UniProt P03951); experiment: Measurement of FXIa inhibition (fluorogenic peptide substrate Boc-Glu(OBzl)-Ala-Arg-AMC); format: biochemical; settings: factor XIa from Kordia 0.45 nM, 15 min pre-incubation, 30 min at 22° C., fluorescence
T1 construct: purchased Kordia
T1 sequence (P03951 388-625 limits assumed): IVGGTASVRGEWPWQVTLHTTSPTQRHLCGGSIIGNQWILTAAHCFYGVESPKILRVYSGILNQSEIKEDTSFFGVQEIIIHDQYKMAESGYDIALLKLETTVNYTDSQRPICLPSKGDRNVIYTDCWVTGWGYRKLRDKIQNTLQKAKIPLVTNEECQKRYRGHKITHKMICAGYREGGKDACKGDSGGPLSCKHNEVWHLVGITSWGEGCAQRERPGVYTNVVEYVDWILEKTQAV
T1 sequence (P03951 19-387 partner limits assumed): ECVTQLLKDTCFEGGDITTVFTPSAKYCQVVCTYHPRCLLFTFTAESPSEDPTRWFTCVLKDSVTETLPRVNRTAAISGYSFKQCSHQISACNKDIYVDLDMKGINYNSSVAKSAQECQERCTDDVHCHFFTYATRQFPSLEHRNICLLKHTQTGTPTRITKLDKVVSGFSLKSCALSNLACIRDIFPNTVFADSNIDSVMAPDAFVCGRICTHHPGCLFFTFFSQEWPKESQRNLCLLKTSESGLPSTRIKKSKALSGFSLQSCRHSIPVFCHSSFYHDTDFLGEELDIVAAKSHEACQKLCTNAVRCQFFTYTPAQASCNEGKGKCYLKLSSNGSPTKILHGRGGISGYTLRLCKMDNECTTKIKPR

Compound: Cc1ccc(S(=O)(=O)N2CCCC2)cc1-c1cccc(C[C@H](NC(=O)[C@H]2CC[C@H](CN)CC2)C(=O)Nc2ccc(-c3noc(=O)[nH]3)cc2)c1 [Example 36, trans-4-(Aminomethyl)-N-[(2S)-3-[2′-methyl-5′-(pyrrolidin-1-ylsulphonyl)biphenyl-3-yl]-1-oxo-1-{[4-(5-oxo-4,5-dihydro-1,2,4-oxadiazol-3-yl)phenyl]amino}propan-2-yl]cyclohexanecarboxamide hydrochloride]
- aPTT (human and animal plasma): 0.12 µmol/L
- IC50 (human factor XIa): 2.2 nM

Compound: NC[C@H]1CC[C@H](C(=O)N[C@@H](Cc2cccc(-c3ccccc3S(=O)(=O)N3CCOCC3)c2)C(=O)Nc2ccc(-c3nn[nH]n3)cc2)CC1 [Example 54, trans-4-(Aminomethyl)-N-[(2S)-3-[2′-(morpholin-4-ylsulphonyl)biphenyl-3-yl]-1-oxo-1-{[4-(2H-tetrazol-5-yl)phenyl]amino}propan-2-yl]cyclohexanecarboxamide hydrochloride]
- aPTT (human and animal plasma): 0.28 µmol/L
- IC50 (human factor XIa): 1.9 nM

Compound: Cc1cc(C(=O)NC2C3CNCC32)ccc1-c1cccc(C[C@H](NC(=O)C2CCC(CN)CC2)C(=O)Nc2ccc(-c3nnn[nH]3)cc2)c1 (stereo partly drawn) [Example 33, 3′-[(2S)-2-({[trans-4-(Aminomethyl)cyclohexyl]carbonyl}amino)-3-oxo-3-{[4-(1H-tetrazol-5-yl)phenyl]amino}propyl]-N-(3-azabicyclo[3.1.0]hex-6-yl)-2-methylbiphenyl-4-carboxamide hydrochloride]
- aPTT (human and animal plasma): 0.08 µmol/L
- IC50 (human factor XIa): 7.6 nM

Compound: NC[C@H]1CC[C@H](C(=O)N[C@@H](Cc2cccc(-c3ccc(C(=O)NC4CCNCC4)cc3)c2)C(=O)Nc2ccc3cn[nH]c3c2)CC1 [Example 51, 3′-[(2S)-2-({[trans-4-(Aminomethyl)cyclohexyl]carbonyl}amino)-3-(1H-indazol-6-ylamino)-3-oxopropyl]-N-(piperidin-4-yl)biphenyl-4-carboxamide hydrochloride]
- aPTT (human and animal plasma): 0.33 µmol/L
- IC50 (human factor XIa): 36 nM

Compound: Cc1ccc(C(=O)NCCOCCOCCO)cc1-c1cccc(C[C@H](NC(=O)[C@H]2CC[C@H](CN)CC2)C(=O)Nc2ccc(-c3nnn[nH]3)cc2)c1 [Example 21, 3′-[(2S)-2-({[trans-4-(Aminomethyl)cyclohexyl]carbonyl}amino)-3-oxo-3-{[4-(1H-tetrazol-5-yl)phenyl]amino}propyl]-N-{2-[2-(2-hydroxyethoxy)ethoxy]ethyl}-6-methylbiphenyl-3-carboxamide hydrochloride]
- aPTT (human and animal plasma): 0.19 µmol/L
- IC50 (human factor XIa): 2.3 nM

Compound: CN1CCN(C(=O)c2cccc(-c3cccc(C[C@H](NC(=O)[C@H]4CC[C@H](CN)CC4)C(=O)Nc4ccc(-c5nnc(Cl)[nH]5)cc4)c3)c2)CC1 [Example 24, trans-4-(Aminomethyl)-N-[(2S)-1-{[4-(3-chloro-4H-1,2,4-triazol-5-yl)phenyl]amino}-3-{3′-[(4-methylpiperazin-1-yl)carbonyl]biphenyl-3-yl}-1-oxopropan-2-yl]cyclohexanecarboxamide hydrochloride]
- aPTT (human and animal plasma): 0.15 µmol/L
- IC50 (human factor XIa): 4.3 nM

Compound: Cc1ccc2[nH]ncc2c1-c1cccc(C[C@H](NC(=O)[C@H]2CC[C@H](CN)CC2)C(=O)Nc2ccc(-c3nnn[nH]3)cc2)c1 [Example 83, N-alpha-{[trans-4-(Aminomethyl)cyclohexyl]carbonyl}-3-(5-methyl-1H-indazol-4-yl)-N-[4-(1H-tetrazol-5-yl)phenyl]-L-phenylalaninamide hydrochloride]
- aPTT (human and animal plasma): 0.17 µmol/L
- IC50 (human factor XIa): 1.3 nM

Compound: CCN(CC)CCNC(=O)c1cccc(-c2cccc(C[C@H](NC(=O)[C@H]3CC[C@H](CN)CC3)C(=O)Nc3ccc(-c4nnc(Cl)[nH]4)cc3)c2)c1 [Example 40, 3′-[(2S)-2-({[trans-4-(Aminomethyl)cyclohexyl]carbonyl}amino)-3-{[4-(3-chloro-4H-1,2,4-triazol-5-yl)phenyl]amino}-3-oxopropyl]-N-[2-(diethylamino)ethyl]biphenyl-3-carboxamide hydrochloride]
- aPTT (human and animal plasma): 0.19 µmol/L
- IC50 (human factor XIa): 8.3 nM

Compound: CN(C)C(=O)c1cccc(-c2cccc(C[C@H](NC(=O)[C@H]3CC[C@H](CN)CC3)C(=O)Nc3ccc(-c4nnn[nH]4)cc3)c2)c1 [Example 43, 3′-[(2S)-2-({[trans-4-(Aminomethyl)cyclohexyl]carbonyl}amino)-3-oxo-3-{[4-(1H-tetrazol-5-yl)phenyl]amino}propyl]-N,N-dimethylbiphenyl-3-carboxamide hydrochloride]
- aPTT (human and animal plasma): 0.26 µmol/L
- IC50 (human factor XIa): 5.2 nM

Compound: Cc1ccc(S(=O)(=O)N(C)C)cc1-c1cccc(C[C@H](NC(=O)[C@H]2CC[C@H](CN)CC2)C(=O)Nc2ccc3[nH]c(=O)[nH]c3c2)c1 [Example 44, trans-4-(Aminomethyl)-N-{(2S)-3-[5′-(dimethylsulphamoyl)-2′-methylbiphenyl-3-yl]-1-oxo-1-[(2-oxo-2,3-dihydro-1H-benzimidazol-5-yl)amino]propan-2-yl}cyclohexanecarboxamide hydrochloride]
- aPTT (human and animal plasma): 0.28 µmol/L
- IC50 (human factor XIa): 13 nM

Compound: Cc1ccc(C[C@H](NC(=O)[C@H]2CC[C@H](CN)CC2)C(=O)Nc2ccc(-c3nnn[nH]3)cc2)cc1-c1ccc(C(=O)NC2CCNCC2)cc1 [Example 49, 5′-[(2S)-2-({[trans-4-(Aminomethyl)cyclohexyl]carbonyl}amino)-3-oxo-3-{[4-(1H-tetrazol-5-yl)phenyl]amino}propyl]-2′-methyl-N-(piperidin-4-yl)biphenyl-4-carboxamide hydrochloride]
- aPTT (human and animal plasma): 0.47 µmol/L
- IC50 (human factor XIa): 21 nM

Compound: CCN(CC)CCNC(=O)c1cccc(-c2cccc(C[C@H](NC(=O)[C@H]3CC[C@H](CN)CC3)C(=O)Nc3ccc(-c4nnn[nH]4)cc3)c2)c1 [Example 34, 3′-[(2S)-2-({[trans-4-(Aminomethyl)cyclohexyl]carbonyl}amino)-3-oxo-3-{[4-(1H-tetrazol-5-yl)phenyl]amino}propyl]-N-[2-(diethylamino)ethyl]biphenyl-3-carboxamide hydrochloride]
- aPTT (human and animal plasma): 0.26 µmol/L
- IC50 (human factor XIa): 8.6 nM

Compound: COCCOCCOCCNC(=O)c1ccc(C)c(-c2cccc(C[C@H](NC(=O)[C@H]3CC[C@H](CN)CC3)C(=O)Nc3ccc(-c4nnn[nH]4)cc3)c2)c1 [Example 20, 3′-[(2S)-2-({[trans-4-(Aminomethyl)cyclohexyl]carbonyl}amino)-3-oxo-3-{[4-(1H-tetrazol-5-yl)phenyl]amino}propyl]-N-{2-[2-(2-methoxyethoxy)ethoxy]ethyl}-6-methylbiphenyl-3-carboxamide hydrochloride]
- aPTT (human and animal plasma): 0.24 µmol/L
- IC50 (human factor XIa): 1.8 nM

Compound: CN1CCN(C(=O)c2cccc(-c3cccc(C[C@H](NC(=O)[C@H]4CC[C@H](CN)CC4)C(=O)Nc4ccc(-c5nnn[nH]5)cc4)c3)c2)CC1 [Example 31, trans-4-(Aminomethyl)-N-[(2S)-3-{3′-[(4-methylpiperazin-1-yl)carbonyl]biphenyl-3-yl}-1-oxo-1-{[4-(1H-tetrazol-5-yl)phenyl]amino}propan-2-yl]cyclohexanecarboxamide hydrochloride]
- aPTT (human and animal plasma): 0.36 µmol/L
- IC50 (human factor XIa): 7 nM

Compound: CN(C)c1ncc(-c2cccc(C[C@H](NC(=O)[C@H]3CC[C@H](CN)CC3)C(=O)Nc3ccc(-c4nnn[nH]4)cc3)c2)cn1 [Example 70, N-alpha-{[trans-4-(Aminomethyl)cyclohexyl]carbonyl}-3-[2-(dimethylamino)pyrimidin-5-yl]-N-[4-(1H-tetrazol-5-yl)phenyl]-L-phenylalaninamide hydrochloride]
- aPTT (human and animal plasma): 0.36 µmol/L
- IC50 (human factor XIa): 2.9 nM

Compound: Cc1cc(N2CCOCC2)ncc1-c1cccc(C[C@H](NC(=O)[C@H]2CC[C@H](CN)CC2)C(=O)Nc2ccc(-c3nnc(Cl)[nH]3)cc2)c1 [Example 102, N-alpha-{[trans-4-(Aminomethyl)cyclohexyl]carbonyl}-N-[4-(3-chloro-4H-1,2,4-triazol-5-yl)phenyl]-3-[4-methyl-6-(morpholin-4-yl)pyridin-3-yl]-L-phenylalaninamide hydrochloride]
- aPTT (human and animal plasma): 0.43 µmol/L
- IC50 (human factor XIa): 2.2 nM

Compound: Cc1nc(N)ncc1-c1cccc(C[C@H](NC(=O)[C@H]2CC[C@H](CN)CC2)C(=O)Nc2ccc(-c3nnn[nH]3)cc2)c1 [Example 95, N-alpha-{[trans-4-(Aminomethyl)cyclohexyl]carbonyl}-3-(2-amino-4-methylpyrimidin-5-yl)-N-[4-(1H-tetrazol-5-yl)phenyl]-L-phenylalaninamide hydrochloride]
- aPTT (human and animal plasma): 0.24 µmol/L
- IC50 (human factor XIa): 5.4 nM

Compound: CN(C)c1ncc(-c2cccc(C[C@H](NC(=O)[C@H]3CC[C@H](CN)CC3)C(=O)Nc3ccc(-c4nnc(Cl)[nH]4)cc3)c2)cn1 [Example 93, N-alpha-{[trans-4-(Aminomethyl)cyclohexyl]carbonyl}-N-[4-(3-chloro-4H-1,2,4-triazol-5-yl)phenyl]-3-[2-(dimethylamino)pyrimidin-5-yl]-L-phenylalaninamide hydrochloride]
- aPTT (human and animal plasma): 0.48 µmol/L
- IC50 (human factor XIa): 5.3 nM

Compound: Cc1nc(N)ccc1-c1cccc(C[C@H](NC(=O)[C@H]2CC[C@H](CN)CC2)C(=O)Nc2ccc(-c3nnn[nH]3)cc2)c1 [Example 66, N-alpha-{[trans-4-(Aminomethyl)cyclohexyl]carbonyl}-3-(6-amino-2-methylpyridin-3-yl)-N-[4-(1H-tetrazol-5-yl)phenyl]-L-phenylalaninamide hydrochloride]
- aPTT (human and animal plasma): 0.12 µmol/L
- IC50 (human factor XIa): 3.3 nM

Compound: Cc1ccc(S(=O)(=O)N2CCCC2)cc1-c1cccc(C[C@H](NC(=O)[C@H]2CC[C@H](CN)CC2)C(=O)Nc2ccc(-c3nnn[nH]3)cc2)c1 [Example 2, trans-4-(Aminomethyl)-N-[(2S)-3-[2′-methyl-5′-(pyrrolidin-1-ylsulphonyl)biphenyl-3-yl]-1-oxo-1-{[4-(1H-tetrazol-5-yl)phenyl]amino}propan-2-yl]cyclohexanecarboxamide hydrochloride]
- aPTT (human and animal plasma): 0.08 µmol/L
- IC50 (human factor XIa): 1.1 nM
